Experimental data reported in US12637453B2, “Pyrazolopyridine inhibitors of c-Jun-n-Terminal kinases and uses thereof” (Dana-Farber Cancer Institute, Inc., priority 2019, dated 2026).

Key:
Assay type in all cases: biochemical
JNK1 = JNK1 (Homo sapiens, UniProt P45983); experiment: IC50 assay for JNK kinase inhibition, JNK1
JNK2 = JNK2 (Homo sapiens, UniProt P45984); experiment: IC50 assay for JNK kinase inhibition, JNK2
JNK3 = JNK3 (Homo sapiens, UniProt P53779); experiment: IC50 assay for JNK kinase inhibition, JNK3
JNK3, sequence (P53779 whole entry): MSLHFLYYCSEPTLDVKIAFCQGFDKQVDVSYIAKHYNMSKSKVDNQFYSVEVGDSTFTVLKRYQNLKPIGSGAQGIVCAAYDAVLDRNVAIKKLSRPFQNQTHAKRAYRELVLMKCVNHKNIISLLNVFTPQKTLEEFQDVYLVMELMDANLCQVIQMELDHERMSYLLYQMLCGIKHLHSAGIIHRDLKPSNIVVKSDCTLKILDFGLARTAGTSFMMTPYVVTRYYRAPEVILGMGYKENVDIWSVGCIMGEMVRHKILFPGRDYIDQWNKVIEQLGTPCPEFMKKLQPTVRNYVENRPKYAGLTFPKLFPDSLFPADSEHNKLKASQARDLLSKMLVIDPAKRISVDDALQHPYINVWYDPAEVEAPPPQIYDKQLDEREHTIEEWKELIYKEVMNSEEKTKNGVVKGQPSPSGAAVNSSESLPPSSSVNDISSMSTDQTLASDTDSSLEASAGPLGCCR

JNK1, sequence (P45983 whole entry): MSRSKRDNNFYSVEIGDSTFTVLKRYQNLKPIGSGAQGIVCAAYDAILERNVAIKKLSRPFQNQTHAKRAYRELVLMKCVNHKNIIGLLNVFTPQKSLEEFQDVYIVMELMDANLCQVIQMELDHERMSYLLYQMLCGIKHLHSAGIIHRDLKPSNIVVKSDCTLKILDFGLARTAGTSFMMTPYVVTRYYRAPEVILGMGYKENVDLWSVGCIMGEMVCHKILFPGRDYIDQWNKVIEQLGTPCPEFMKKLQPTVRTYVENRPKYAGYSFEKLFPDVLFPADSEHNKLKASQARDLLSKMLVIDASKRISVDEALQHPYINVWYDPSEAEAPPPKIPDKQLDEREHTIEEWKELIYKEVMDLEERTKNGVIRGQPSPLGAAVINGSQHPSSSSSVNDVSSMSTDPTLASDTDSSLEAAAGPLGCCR
JNK2, sequence (P45984 whole entry): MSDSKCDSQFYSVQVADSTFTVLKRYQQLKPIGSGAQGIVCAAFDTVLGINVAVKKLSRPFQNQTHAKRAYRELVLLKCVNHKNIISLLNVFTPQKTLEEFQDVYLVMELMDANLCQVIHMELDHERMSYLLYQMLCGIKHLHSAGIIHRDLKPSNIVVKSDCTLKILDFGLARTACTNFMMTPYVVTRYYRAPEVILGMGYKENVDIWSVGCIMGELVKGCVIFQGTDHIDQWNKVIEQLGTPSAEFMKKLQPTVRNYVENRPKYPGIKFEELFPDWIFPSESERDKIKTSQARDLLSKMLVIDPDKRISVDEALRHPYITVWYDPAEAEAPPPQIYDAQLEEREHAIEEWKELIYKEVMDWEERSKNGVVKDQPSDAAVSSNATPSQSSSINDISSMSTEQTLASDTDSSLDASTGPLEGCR

Row | Compound | IC50 (JNK1) [nM] | IC50 (JNK2) [nM] | IC50 (JNK3) [nM]
1 | CN(C)C/C=C/C(=O)Nc1ccc(C(=O)N2CC[C@H](Nc3nccc(-c4c(-c5ccc(Cl)cc5)nn5ccccc45)n3)C2)cc1 [I-26, (S,E)-N-(4-(3-((4-(2-(4-chlorophenyl)pyrazolo[1,5-a]pyridin-3-yl)pyrimidin-2-yl)amino)pyrrolidine-1-carbonyl)phenyl)-4-(dimethylamino)but-2-enamide] | 8.9 | 67.6 | 10.3
2 | C[C@H]1CN(C(=O)c2ccc(NC(=O)CCCN(C)C)cc2)C[C@H]1Nc1nccc(-c2c(-c3ccccc3)nn3ccccc23)n1 [I-27, 4-(dimethylamino)-N-(4-((3S,4S)-3-methyl-4-((4-(2-phenylpyrazolo[1,5-a]pyridin-3-yl)pyrimidin-2-yl)amino)pyrrolidine-1-carbonyl)phenyl)butanamide] | 2600 | 99.5 | 790
3 | Cc1ccc2c(-c3ccnc(N[C@@H]4CN(C(=O)c5ccc(NC(=O)/C=C/CN(C)C)cc5)C[C@@H]4C)n3)c(-c3ccccc3)nn2c1 [I-31, (E)-4-(dimethylamino)-N-(4-((3S,4S)-3-methyl-4-((4-(6-methyl-2-phenylpyrazolo[1,5-a]pyridin-3-yl)pyrimidin-2-yl)amino)pyrrolidine-1-carbonyl)phenyl)but-2-enamide] | 2390 | 85.8 | 274
4 | COc1cccn2nc(-c3ccccc3)c(-c3ccnc(N[C@@H]4CN(C(=O)c5ccc(NC(=O)/C=C/CN(C)C)cc5)C[C@@H]4C)n3)c12 [I-32, (E)-4-(dimethylamino)-N-(4-((3S,4S)-3-((4-(4-methoxy-2-phenylpyrazolo[1,5-a]pyridin-3-yl)pyrimidin-2-yl)amino)-4-methylpyrrolidine-1-carbonyl)phenyl)but-2-enamide] | 1810 | 222 | > 3330
